# Results from PMC10998383, “Nitrophenylpiperazine derivatives as novel tyrosinase inhibitors: design, synthesis, and in silico evaluations” (BMC Chemistry, 2024).
# “Also recorded” adds a separate entry of the source. Read-outs that look alike come from different tables or passages of the source.
# How the values were obtained:
# mushroom tyrosinase [1] = molecular target: T1, mushroom tyrosinase (Agaricus bisporus, UniProt C7FF04); details: cited from earlier work
# mushroom tyrosinase [2] = molecular target: T1, mushroom tyrosinase; test: Mushroom tyrosinase inhibitory assay with L-dopa as substrate; assay type: biochemical; details: for inhibition at 100 µM: read-out: % Inhibition at 100 μM;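 for all read-outs here: enzyme activity followed as absorbance change at 475 nm in phosphate buffer pH 6.8, monitored continuously, IC50 derived from percent inhibition dose–response curves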
# Description: The mushroom tyrosinase activity assays for the synthetic compounds were conducted using a modified procedure from a previous study. In summary, a 96-well microplate was utilized, and 160 μl of phosphate buffer (50 mM, pH 6.8), 10 μl of mushroom tyrosinase (500 U/ml, dissolved in PBS), and 10 μl of the test compound (dissolved in DMSO) were added to each well. Then, 20 μl of L-dopa (7 mM, dissolved in PBS) was added to initiate the enzymatic reaction. The change in absorbance at 475 nm was continuously monitored using a spectrophotometer. […] The IC50 value, representing the compound’s inhibitory potency, was determined from dose–response curves of percentage inhibition.
# mushroom tyrosinase [3] = molecular target: T1, mushroom tyrosinase; test: Determination of the inhibition type (Lineweaver–Burk plot analysis)
# B16F10 cells = tested on: B16F10 cells; set-up: method as in PMID 30856375; details: cited from earlier work
# [4] = L-dopa substrate, ± SD, read-out: IC50 ± SD
# T1 sequence (C7FF04 1-392): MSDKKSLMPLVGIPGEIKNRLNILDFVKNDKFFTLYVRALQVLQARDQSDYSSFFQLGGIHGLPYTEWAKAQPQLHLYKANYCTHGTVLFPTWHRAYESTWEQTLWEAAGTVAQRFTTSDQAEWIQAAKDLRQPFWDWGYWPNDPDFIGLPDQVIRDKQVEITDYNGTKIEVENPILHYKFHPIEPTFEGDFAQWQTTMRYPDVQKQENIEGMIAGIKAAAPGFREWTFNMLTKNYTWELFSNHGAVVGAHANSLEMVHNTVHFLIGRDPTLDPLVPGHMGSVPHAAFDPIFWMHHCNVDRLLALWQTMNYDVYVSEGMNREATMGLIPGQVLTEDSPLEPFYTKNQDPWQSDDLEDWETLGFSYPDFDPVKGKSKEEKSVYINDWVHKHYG
SMILES,melting point [°C],"inhibition at 100 µM (mushroom tyrosinase [2]; 100 μM, L-dopa substrate, ± SD) [%]",IC50 (mushroom tyrosinase [2]) [µM],further results
O=C(O)/C=C/c1ccc(O)c(O)c1 [caffeic acid],,,,Tyrosinase inhibitory potential (mushroom tyrosinase [1]): almost inactive
O=C(c1ccccc1C(F)(F)F)N1CCN(Cc2ccc(F)cc2)CC1 [E],,,,IC50 (mushroom tyrosinase [1]): 0.48 ± 0.05 µM
"O=C(OCCN1CCN(c2ccc([N+](=O)[O-])cc2)CC1)c1ccc([N+](=O)[O-])cc1 [Compound 4d, 2-(4-(4-Nitrophenyl)piperazin-1-yl)ethyl 4-nitrobenzoate]",172 to 174,28.3 ± 2.89,,IC50 (mushroom tyrosinase [2]; [4]): 203.2 ± 1.16 µM
"O=C(OCCN1CCN(c2ccc([N+](=O)[O-])cc2)CC1)c1ccccc1 [Compound 4a, 2-(4-(4-Nitrophenyl)piperazin-1-yl)ethyl benzoate]",176 to 178,35.8 ± 3.24,174.7 ± 0.68,
COc1ccc(/C=C/C(=O)N2CCN(c3ccc(F)c(Cl)c3)CC2)cc1[N+](=O)[O-] [D],,,,IC50 (mushroom tyrosinase [1]): 0.51 µM
"O=C(OCCN1CCN(c2ccc([N+](=O)[O-])cc2)CC1)c1cccc([N+](=O)[O-])c1 [Compound 4e, 2-(4-(4-Nitrophenyl)piperazin-1-yl)ethyl 3-nitrobenzoate]",181 to 183,24.9 ± 2.81,,IC50 (mushroom tyrosinase [2]; [4]): > 200 µM
"COc1ccc(CC(=O)OCCN2CCN(c3ccc([N+](=O)[O-])cc3)CC2)cc1 [Compound 4g, 2-(4-(4-Nitrophenyl)piperazin-1-yl)ethyl 2-(4-methoxyphenyl)acetate]",207 to 209,30 ± 4.04,> 200,
"COc1ccc(C=O)c(C(=O)OCCN2CCN(c3ccc([N+](=O)[O-])cc3)CC2)c1OC [Compound 4h, 2-(4-(4-Nitrophenyl)piperazin-1-yl)ethyl 6-formyl-2,3-dimethoxybenzoate]",176 to 178,26.9 ± 3.55,200.9 ± 1.32,
"O=C(OCCN1CCN(c2ccc([N+](=O)[O-])cc2)CC1)c1ccccc1Br [Compound 4b, 2-(4-(4-Nitrophenyl)piperazin-1-yl)ethyl 2-bromobenzoate]",185 to 187,20.6 ± 2.58,> 200,
"O=C(Cc1ccccc1)OCCN1CCN(c2ccc([N+](=O)[O-])cc2)CC1 [Compound 4i, 2-(4-(4-Nitrophenyl)piperazin-1-yl)ethyl 2-phenylacetate]",178 to 180,,184.2 ± 0.88,inhibition at 100 µM (mushroom tyrosinase [2]): 39.4 ± 4.18%
"O=C(OCCN1CCN(c2ccc([N+](=O)[O-])cc2)CC1)c1ccc([N+](=O)[O-])cc1Cl [Compound 4f, 2-(4-(4-Nitrophenyl)piperazin-1-yl)ethyl 2-chloro-4-nitrobenzoate]",203 to 205,35.1 ± 2.25,,IC50 (mushroom tyrosinase [2]; [4]): > 200 µM
"O=C(OCCN1CCN(c2ccc([N+](=O)[O-])cc2)CC1)c1cccnc1 [Compound 4k, 2-(4-(4-Nitrophenyl)piperazin-1-yl)ethyl nicotinate]",168 to 170,54.3 ± 4.58,82.7 ± 1.16,
"O=C(OCCN1CCN(c2ccc([N+](=O)[O-])cc2)CC1)c1ccc([N+](=O)[O-])o1 [Compound 4m, 2-(4-(4-Nitrophenyl)piperazin-1-yl)ethyl 5-nitrofuran-2-carboxylate]",,43.7 ± 3.18,,IC50 (mushroom tyrosinase [2]; [4]): 175.3 ± 0.24 µM
"O=C(OCCN1CCN(c2ccc([N+](=O)[O-])cc2)CC1)c1cc2ccccc2[nH]1 [Compound 4l, 2-(4-(4-Nitrophenyl)piperazin-1-yl)ethyl 1H-indole-2-carboxylate]",192 to 194,66.6 ± 4.12,72.55 ± 0.49,"Inhibition mode (mushroom tyrosinase [3]; Lineweaver–Burk plot, L-dopa substrate): mixed inhibitor; also recorded: mixed-type inhibition; Vmax (mushroom tyrosinase [3]; inhibitor concentration 10 µM): 65.79 mM/min; Vmax (mushroom tyrosinase [3]; inhibitor concentration 40 µM): 64.10 mM/min; Vmax (mushroom tyrosinase [3]; inhibitor concentration 100 µM): 62.89 mM/min"
"O=C(OCCN1CCN(c2ccc([N+](=O)[O-])cc2)CC1)c1ccc(Cl)cc1Cl [Compound 4c, 2-(4-(4-Nitrophenyl)piperazin-1-yl)ethyl 2,4-dichlorobenzoate]",196 to 198,27.9 ± 3.09,> 200,
"O=C(C=Cc1ccccc1)OCCN1CCN(c2ccc([N+](=O)[O-])cc2)CC1 [Compound 4j, 2-(4-(4-Nitrophenyl)piperazin-1-yl)ethyl cinnamate]",185 to 187,23.1 ± 3.6,> 200,
CN1CCN(C(=O)/C=C/c2ccc(O)cc2O)CC1 [C],,,,Cellular tyrosinase activity (B16F10 cells): dose-dependently inhibited; Melanin content (B16F10 cells): dose-dependently inhibited; % inhibition (mushroom tyrosinase [1]; at 25 μM): 94.39%
